Measured values: patent publication US8883759B2, “Anti-tumor effect potentiator” (Taiho Pharmaceutical Co., Ltd., priority 2009, dated 2014)

How the values were obtained:
[1] = tested on: human breast cancer cell line MX-1; test: Enhancing activity for anti-tumor effect of TS-1 in nude mice with transplanted MX-1 (Test Example 2); type: in vivo, BALB/cA Jcl-nu mice; settings: 200 mg/kg/day test drug + TS-1 8.3 mg/kg/day, oral, 14 days; MX-1 in nude mice; T/C on day 15 (FIG. 1)
Procedure: A human breast cancer cell line MX-1 was transplanted into the right-sided chest of 5- to 6-week-old male BALB/cA Jcl-nu mice. After transplantation, the major axis (mm) and minor axis (mm) of the tumor were measured, and the tumor volume (TV) was estimated by calculation. Using MiSTAT group separation program, the mice were then divided into individual groups so that the mean TV of each group is to be equal. The date at which mice were divided into the groups (n=5) was defined as day 0.
A test solution for tegafur/gimeracil/oteracil potassium (TS-1, manufactured by Taiho Pharmaceutical Co., Ltd.) single administration group, containing 0.5% hydroxypropylmethyl cellulose, 2.5% dimethylacetamide, 2.5% Tween 80, and 10% Cremophor as final concentrations, was prepared, provided at 8.3 mg/kg/day. The dose of TS-1 was represented by the amount of tegafur (FT). […]
TV on day 15 was measured, and relative tumor volume (RTV) was calculated. Then, T/C (%) was calculated according to a formula described below, and an anti-tumor effect was evaluated. […]

human dUTPase = human dUTPase (Homo sapiens (Human), UniProt P33316); test: Human dUTPase inhibitory effect ([5-3H]dUMP production from [5-3H]dUTP); type: biochemical
human dUTPase, sequence (P33316 94-252): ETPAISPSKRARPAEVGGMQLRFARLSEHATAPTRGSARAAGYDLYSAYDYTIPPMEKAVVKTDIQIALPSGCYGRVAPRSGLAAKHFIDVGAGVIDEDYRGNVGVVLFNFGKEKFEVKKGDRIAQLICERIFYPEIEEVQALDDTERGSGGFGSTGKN
Procedure: The inhibitory activity of these compounds of the present invention against human dUTPase was determined by measuring the production of [5-^3H]deoxyuridine monophosphate (hereinafter, referred to as [5-^3H]dUMP) from [5-^3H]deoxyuridine triphosphate (hereinafter, referred to as [5-^3H]dUTP) according to a method shown below.
Specifically, 0.2 mL in total of a solution containing 0.02 mL of 1 μM dUTP (including 588 Bq/mL [5-^3H]dUTP), 0.05 mL of a 0.2 M Tris buffer solution (pH 7.4), 0.05 mL of 16 mM magnesium chloride, 0.02 mL of 20 mM 2-mercaptoethanol, 0.02 mL of a 1% aqueous solution of fetal bovine serum-derived albumin, 0.02 mL of varying concentrations of test compound solutions or pure water as a control, and 0.02 mL of a solution of human dUTPase, which is expressed in E. coli and then purified, was incubated at 37° C. for 15 minutes. After the incubation, the solution was heated at 100° C. for 1 minute to terminate the reaction, followed by centrifugation at 15000 rpm for 2 minutes. An aliquot (150 μL) of the supernatant obtained by centrifugation was analyzed using an Atlantis dC18 column (manufactured by Waters Corp., 4.6×250 mm) and a high-performance liquid chromatograph (manufactured by Shimadzu Corp., Prominence). […]
The inhibitory activity of the test compound was determined according to the formula shown below. […]

SMILES	enhancing activity for anti-tumor effect of TS-1 [1]	dUTPase inhibitory activity (in words) (human dUTPase; human dUTPase)	IC50 (human dUTPase; concentration inhibiting 50% of [5-3H]dUMP production by human dUTPase, 37° C., 15 minutes) [nM]
O=c1ccn(COCCCC2(NS(=O)(=O)c3cccc(OCC4CC4)c3)CC2)c(=O)[nH]1 [Comparative Compound 1, 3-(cyclopropylmethoxy)-N-(1-(3-((2,4-dioxo-3,4-dihydropyrimidin-1(2H)-yl)methoxy)propyl)cyclopropyl)benzenesulfonamide]	not observed	strong	–
CC[C@@H](NS(=O)(=O)CCCn1ccc(=O)[nH]c1=O)c1cccc(OCC2CC2)c1 [Compound 19, (R)—N-(1-(3-(cyclopropylmethoxy)phenyl)propyl)-3-(2,4-dioxo-3,4-dihydropyrimidin-1(2H)-yl)propane-1-sulfonamide]	–	–	610
